Active and inactive are the calls of the source. No cut-off for these calls is given here.
Tests used:
D(2) dopamine receptor [1] = biological target: T1, D(2) dopamine receptor (Homo sapiens, UniProt P14416); experiment: Binding affinity was measured at cloned mammalian dopamine D2 receptor expressed in CHO-K1 cells (using [3H]U-86170); format: cell-based
Rattus norvegicus [2] = experiment: In vivo HVA level was measured in killed rat striatal brain regions at a dose of 200 umol/kg, sc; format: functional
[3] = biological target: 5-hydroxytryptamine receptor 1A (Homo sapiens, UniProt P08908); experiment: (§1) Binding affinity was measured at cloned mammalian 5-HT1A receptor expressed in CHO-K1 cells (using [3H]8-OH-DPAT ); format: cell-based
D(3) dopamine receptor [4] = biological target: D(3) dopamine receptor (Homo sapiens, UniProt P35462); experiment: Binding affinity was measured at cloned mammalian dopamine D3 receptor expressed in CHO-K1 cells (using [3H]- spiperone); format: cell-based
Rattus norvegicus [5] = experiment: In vivo 5-HIAA level was measured in killed rat limbic brain regions at a dose of 200 umol/kg, sc; format: functional, Limbic system
Rattus norvegicus [6] = experiment: In vivo DOPAC level was measured in killed rat striatal brain regions at a dose of 200 umol/kg, sc; format: functional
Rattus norvegicus [7] = experiment: In vivo locomotor activity (LMA) in habituated rats at a dose of 200 umol/kg, sc, for 60 mins after 60 min habituation period; format: functional
D(4) dopamine receptor [8] = biological target: T2, D(4) dopamine receptor (Homo sapiens, UniProt P21917); experiment: Binding affinity was measured at cloned mammalian dopamine D4 receptor expressed in CHO-K1 cells (using [3H]- spiperone); format: cell-based
T2 sequence (P21917 whole entry): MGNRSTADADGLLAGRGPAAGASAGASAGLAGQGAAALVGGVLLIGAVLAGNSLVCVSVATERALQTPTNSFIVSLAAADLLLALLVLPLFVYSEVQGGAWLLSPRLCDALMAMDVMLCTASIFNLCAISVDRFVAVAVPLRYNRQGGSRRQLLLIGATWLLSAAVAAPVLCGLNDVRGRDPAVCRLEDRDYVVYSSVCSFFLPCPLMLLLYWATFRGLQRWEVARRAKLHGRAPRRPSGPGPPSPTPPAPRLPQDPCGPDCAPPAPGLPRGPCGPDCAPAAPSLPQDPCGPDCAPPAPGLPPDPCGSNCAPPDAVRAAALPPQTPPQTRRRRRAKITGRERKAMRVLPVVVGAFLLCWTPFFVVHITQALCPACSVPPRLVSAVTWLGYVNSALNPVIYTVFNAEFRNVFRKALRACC

Rattus norvegicus [9] = experiment: In vivo DOPAC level was measured in killed rat striatal brain regions at a dose of 100 umol/kg, sc; format: functional; parameters: unit not given here
Rattus norvegicus [10] = experiment: In vivo HVA level was measured in killed rat striatal brain regions at a dose of 100 umol/kg, oral.; format: functional
Rattus norvegicus [11] = experiment: In vivo HVA level was measured in killed rat striatal brain regions at a dose of 100 umol/kg, sc; format: functional; parameters: unit not given here
Rattus norvegicus [12] = experiment: In vivo DOPAC level was measured in killed rat striatal brain regions at a dose of 25 umol/kg, sc; format: functional
[13] = biological target: T3, 5-hydroxytryptamine receptor 1A (Rattus norvegicus, UniProt P19327); experiment: Binding affinity was measured at 5-HT1A receptor in rat striatal membranes using [3H]8-OH-DPAT; format: cell membranes, Striatum, Membrane
T3 sequence (P19327 whole entry): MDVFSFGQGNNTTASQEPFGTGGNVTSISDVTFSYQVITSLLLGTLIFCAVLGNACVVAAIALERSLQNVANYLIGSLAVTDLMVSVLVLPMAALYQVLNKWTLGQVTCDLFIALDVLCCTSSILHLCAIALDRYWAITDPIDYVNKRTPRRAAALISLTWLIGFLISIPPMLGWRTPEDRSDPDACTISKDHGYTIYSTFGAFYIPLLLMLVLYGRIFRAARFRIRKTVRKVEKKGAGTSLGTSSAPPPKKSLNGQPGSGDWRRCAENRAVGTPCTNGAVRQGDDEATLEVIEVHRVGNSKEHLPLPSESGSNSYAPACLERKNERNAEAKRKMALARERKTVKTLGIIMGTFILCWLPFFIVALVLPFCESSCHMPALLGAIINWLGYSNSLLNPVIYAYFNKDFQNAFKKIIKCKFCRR

Rattus norvegicus [14] = experiment: In vivo 5-HIAA level was measured in killed rat limbic brain regions at a dose of 100 umol/kg, oral; format: functional, Limbic system
Rattus norvegicus [15] = experiment: In vivo locomotor activity (LMA) in habituated rats at a dose of 100 umol/kg, oral, for 60 mins after 60 min habituation period; format: functional
D(2) dopamine receptor [16] = biological target: D(2) dopamine receptor (Rattus norvegicus, UniProt P61169); experiment: Binding affinity was measured from rat striatal membrane using [3H]-spiperone at D2 receptors
Rattus norvegicus [17] = experiment: In vivo locomotor activity (LMA) in habituated rats at a dose of 25 umol/kg, sc, for 60 mins after 60 min habituation period; format: functional
Rattus norvegicus [18] = experiment: In vivo locomotor activity (LMA) in habituated rats at a dose of 100 umol/kg, sc, for 60 mins after 60 min habituation period; format: functional; parameters: unit not given here
Rattus norvegicus [19] = experiment: In vivo DOPAC level was measured in killed rat striatal brain regions at a dose of 100 umol/kg, oral.; format: functional
Rattus norvegicus [20] = experiment: In vivo HVA level was measured in killed rat striatal brain regions at a dose of 25 umol/kg, sc; format: functional
Rattus norvegicus [21] = experiment: In vivo 5-HIAA level was measured in killed rat limbic brain regions at a dose of 100 umol/kg, sc; format: functional, Limbic system; parameters: unit not given here
Rattus norvegicus [22] = experiment: In vivo 5-HIAA level was measured in killed rat limbic brain regions at a dose of 25 umol/kg, sc; format: functional, Limbic system
[23] = In vivo percent of absolute bioavailability obtained from blood plasma levels analyzed by means of GC/MS (dose 5 uM/kg i.v. and 40 uM/kg, p.o.); format: ADME, organism-based; conditions: rat, po
[24] = Half-life was estimated from the elimination phase of the oral [C] vs time curves in 4 rats; format: ADME, organism-based; conditions: rat, in vivo
Rattus norvegicus [25] = experiment: In vivo locomotor activity (LMA) in habituated rats at a dose of 50 umol/kg, sc, for 60 mins after 60 min habituation period; format: functional
Rattus norvegicus [26] = species: Rattus norvegicus; experiment: In vitro stability relative to (+)-AJ76 in rat hepatocyte assay; In active; format: functional
Rattus norvegicus [27] = experiment: In vivo DOPAC level was measured in killed rat striatal brain regions at a dose of 12.5 umol/kg, sc; format: functional
Rattus norvegicus [28] = experiment: In vivo locomotor activity (LMA) in habituated rats at a dose of 12.5 umol/kg, sc, for 60 mins after 60 min habituation period; format: functional
Rattus norvegicus [29] = experiment: In vivo 5-HIAA level was measured in killed rat limbic brain regions at a dose of 12.5 umol/kg, sc; format: functional, Limbic system
Rattus norvegicus [30] = experiment: In vivo HVA level was measured in killed rat striatal brain regions at a dose of 12.5 umol/kg, sc; format: functional
Rattus norvegicus [31] = experiment: In vivo HVA level was measured in killed rat striatal brain regions at a dose of 50 umol/kg, sc; format: functional
Rattus norvegicus [32] = experiment: In vivo DOPAC level was measured in killed rat striatal brain regions at a dose of 50 umol/kg, sc; format: functional
Rattus norvegicus [33] = experiment: In vivo 5-HIAA level was measured in killed rat limbic brain regions at a dose of 50 umol/kg, sc; format: functional, Limbic system
[34] = biological target: T4, D(4) dopamine receptor (Homo sapiens) (UniProt P21917); experiment: Percent inhibition against dopamine D4 receptor at a concentration of 1 umol/L
T4 sequence (whole entry): T2 sequence (P21917 whole entry)

D(4) dopamine receptor [35] = biological target: T2, D(4) dopamine receptor; experiment: Binding affinity was measured at cloned mammalian dopamine D4 receptor expressed in CHO-K1 cells (using [3H]- spiperone); NA means inactive; format: cell-based
[36] = biological target: T5, 5-hydroxytryptamine receptor 1A (Homo sapiens, UniProt P08908); experiment: as §1; format: cell-based; remark: listed apart in the source
T5 sequence (P08908 whole entry): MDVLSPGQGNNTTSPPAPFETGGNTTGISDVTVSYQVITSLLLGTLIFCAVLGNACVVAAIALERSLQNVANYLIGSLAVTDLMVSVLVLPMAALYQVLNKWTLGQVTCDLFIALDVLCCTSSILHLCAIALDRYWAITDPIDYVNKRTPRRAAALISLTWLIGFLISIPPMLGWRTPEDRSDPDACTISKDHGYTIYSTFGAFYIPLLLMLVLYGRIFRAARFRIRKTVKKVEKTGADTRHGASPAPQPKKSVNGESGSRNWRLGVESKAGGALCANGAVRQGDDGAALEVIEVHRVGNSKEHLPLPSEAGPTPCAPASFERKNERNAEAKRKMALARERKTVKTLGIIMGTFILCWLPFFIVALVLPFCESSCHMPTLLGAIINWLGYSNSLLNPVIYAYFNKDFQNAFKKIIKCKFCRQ

D(3) dopamine receptor [37] = biological target: D(3) dopamine receptor (Rattus norvegicus, UniProt P19020); experiment: Binding affinity was measured at cloned mammalian dopamine D3 receptor expressed in CHO-K1 cells (using [3H]- spiperone); NA means inactive; format: cell-based
D(2) dopamine receptor [38] = biological target: T1, D(2) dopamine receptor; experiment: Binding affinity was measured at cloned mammalian dopamine D2 receptor expressed in CHO-K1 cells (using [3H]U-86,170); NA means Inactive; format: cell-based
D(2) dopamine receptor [39] = biological target: T1, D(2) dopamine receptor; experiment: Percent inhibition against dopamine D2 receptor at a concentration of 1 umol/L
[40] = biological target: D(3) dopamine receptor (Rattus norvegicus) (UniProt P19020); experiment: Percent inhibition against dopamine D3 receptor at a concentration of 1 umol/L
D(3) dopamine receptor (Rattus norvegicus), sequence (P19020 whole entry): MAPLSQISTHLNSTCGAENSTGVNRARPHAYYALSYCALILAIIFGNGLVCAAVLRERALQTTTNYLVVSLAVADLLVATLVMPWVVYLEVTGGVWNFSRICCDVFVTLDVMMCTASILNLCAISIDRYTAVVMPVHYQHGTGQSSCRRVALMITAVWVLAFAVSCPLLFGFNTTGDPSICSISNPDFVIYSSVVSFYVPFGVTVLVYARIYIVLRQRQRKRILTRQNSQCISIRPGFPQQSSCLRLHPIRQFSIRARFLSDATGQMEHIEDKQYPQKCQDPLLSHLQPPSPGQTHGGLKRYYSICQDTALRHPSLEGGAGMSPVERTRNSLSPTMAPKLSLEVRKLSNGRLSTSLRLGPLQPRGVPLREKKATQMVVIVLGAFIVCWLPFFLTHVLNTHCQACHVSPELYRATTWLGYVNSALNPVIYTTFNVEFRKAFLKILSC

T1 sequence (P14416 whole entry): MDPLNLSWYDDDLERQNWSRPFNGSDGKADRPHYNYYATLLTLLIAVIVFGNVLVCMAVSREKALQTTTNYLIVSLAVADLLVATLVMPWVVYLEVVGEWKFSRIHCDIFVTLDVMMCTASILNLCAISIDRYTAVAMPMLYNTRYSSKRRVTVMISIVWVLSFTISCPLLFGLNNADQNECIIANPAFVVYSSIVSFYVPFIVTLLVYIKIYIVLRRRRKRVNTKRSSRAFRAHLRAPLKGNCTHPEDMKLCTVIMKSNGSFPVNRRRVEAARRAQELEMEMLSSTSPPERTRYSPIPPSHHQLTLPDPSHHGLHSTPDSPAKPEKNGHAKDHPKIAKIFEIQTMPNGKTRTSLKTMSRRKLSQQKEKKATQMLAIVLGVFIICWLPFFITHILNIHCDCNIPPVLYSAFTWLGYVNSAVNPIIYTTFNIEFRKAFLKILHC
D(3) dopamine receptor (Homo sapiens, UniProt P35462), sequence (P35462 whole entry): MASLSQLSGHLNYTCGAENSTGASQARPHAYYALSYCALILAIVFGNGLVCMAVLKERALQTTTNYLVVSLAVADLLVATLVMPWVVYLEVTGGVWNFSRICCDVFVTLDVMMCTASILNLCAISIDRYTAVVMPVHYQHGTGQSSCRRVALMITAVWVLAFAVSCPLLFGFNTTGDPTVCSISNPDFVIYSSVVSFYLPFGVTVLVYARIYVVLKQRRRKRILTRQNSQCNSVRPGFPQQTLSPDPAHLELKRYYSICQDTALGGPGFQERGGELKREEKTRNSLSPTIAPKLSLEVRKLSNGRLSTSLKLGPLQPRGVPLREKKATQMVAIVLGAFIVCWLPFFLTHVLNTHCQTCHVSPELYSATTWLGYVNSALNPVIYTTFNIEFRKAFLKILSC
D(2) dopamine receptor (Rattus norvegicus, UniProt P61169), sequence (P61169 whole entry): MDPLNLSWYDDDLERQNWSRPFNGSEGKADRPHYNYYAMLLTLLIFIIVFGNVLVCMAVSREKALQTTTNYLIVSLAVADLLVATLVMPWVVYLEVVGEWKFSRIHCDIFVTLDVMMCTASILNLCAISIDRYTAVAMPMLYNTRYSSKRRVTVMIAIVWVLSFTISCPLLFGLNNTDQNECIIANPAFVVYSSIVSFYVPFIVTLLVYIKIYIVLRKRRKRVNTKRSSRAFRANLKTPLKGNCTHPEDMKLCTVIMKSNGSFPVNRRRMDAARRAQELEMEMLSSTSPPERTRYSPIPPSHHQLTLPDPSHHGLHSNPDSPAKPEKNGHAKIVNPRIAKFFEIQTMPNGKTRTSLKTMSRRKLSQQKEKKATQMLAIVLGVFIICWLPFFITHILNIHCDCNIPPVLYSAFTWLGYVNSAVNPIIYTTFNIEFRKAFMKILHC
D(3) dopamine receptor (Rattus norvegicus, UniProt P19020), sequence (P19020 whole entry): as the sequence (P19020 whole entry) above

Row | SMILES | Ki (D(2) dopamine receptor [1]) [nM] | Activity (Rattus norvegicus [2]) | Ki [3] [nM] | Ki (D(3) dopamine receptor [4]) [nM] | Activity (Rattus norvegicus [5]) | Activity (Rattus norvegicus [6]) | Activity (Rattus norvegicus [7]) | Ki (D(4) dopamine receptor [8]) [nM] | Activity (Rattus norvegicus [9]) | Activity (Rattus norvegicus [11]) | Activity (Rattus norvegicus [18]) | Activity (Rattus norvegicus [21]) | bioavailability [23] [%] | half-life [24] [h] | also measured
1 | CCCN[C@@H]1CCc2c(C(=O)OC)cccc2[C@@H]1C | 2330 | 120 | 287 | 253 | <75 | 117 | 102 | 1590 | – | – | – | – | – | – | –
2 | CCCN(CCC)[C@@H]1CCc2c(C#N)cccc2[C@@H]1C | – | – | – | – | – | – | – | – | <213 | <241 | <334 | 95 | – | – | Activity (Rattus norvegicus [10]): <166; Activity (Rattus norvegicus [12]): <127; Ki [13]: 5040 nM; Activity (Rattus norvegicus [14]): 82; Activity (Rattus norvegicus [15]): <287; Ki (D(2) dopamine receptor [16]): 6670 nM; Activity (Rattus norvegicus [17]): 125; Activity (Rattus norvegicus [19]): <128; Activity (Rattus norvegicus [20]): <134; Activity (Rattus norvegicus [22]): 93
3 | CCCN[C@@H]1CCc2c(OS(=O)(=O)C(F)(F)F)cccc2[C@@H]1C | 2560 | <135 | 3070 | 171 | 92 | <130 | 167 | 621 | – | – | – | – | 62.2 | 6 | –
4 | CCCN(CCC)[C@@H]1CCc2c(OC)cccc2[C@@H]1C | 15 | – | – | 4.2 | – | – | – | – | – | – | – | – | 3.7 | 2.5 | Activity (Rattus norvegicus [25]): <200; Activity (Rattus norvegicus [26]): inactive; Activity (Rattus norvegicus [27]): <176; Activity (Rattus norvegicus [28]): <191; Activity (Rattus norvegicus [29]): 119; Activity (Rattus norvegicus [30]): <214
5 | CCCN[C@@H]1CCc2c(OC)cccc2[C@@H]1C | 145 | – | – | – | – | – | – | – | – | – | – | – | 1.6 | 1 | Activity (Rattus norvegicus [31]): <402; Activity (Rattus norvegicus [25]): <354; Activity (Rattus norvegicus [27]): <220; Activity (Rattus norvegicus [28]): <272; Activity (Rattus norvegicus [29]): 121; Activity (Rattus norvegicus [32]): <346; Activity (Rattus norvegicus [33]): 127; Activity (Rattus norvegicus [30]): <251
6 | CCCN(CCC)[C@@H]1CCc2c(C(N)=O)cccc2[C@@H]1C | – | – | – | – | – | – | – | – | 135 | 128 | 169 | 113 | – | – | –
7 | CCCN(CCC)[C@@H]1CCc2c(OS(=O)(=O)C(F)(F)F)cccc2[C@@H]1C | 546 | <163 | > 3450 | 40 | 94 | <146 | <250 | 121 | – | – | – | – | 9.4 | 6 | –
8 | CCCN[C@@H]1CCc2c(C(N)=O)cccc2[C@@H]1C | – | – | – | – | – | – | – | – | 109 | 105 | 215 | 97 | – | – | Ki [13]: 6720 nM
9 | CCCN[C@@H]1CCc2c(C#N)cccc2[C@@H]1C | – | – | – | – | – | – | – | – | <224 | <248 | 149 | 100 | – | – | inhibition [34]: < 50%; Ki (D(4) dopamine receptor [35]): Not Active; Activity (Rattus norvegicus [12]): 121; Ki [36]: > 1790 nM; Ki (D(2) dopamine receptor [16]): 16700 nM; Ki (D(3) dopamine receptor [37]): Not Active; Activity (Rattus norvegicus [17]): 165; Ki (D(2) dopamine receptor [38]): Not Active; inhibition (D(2) dopamine receptor [39]): < 50%; Activity (Rattus norvegicus [20]): 136; inhibition [40]: < 50%; Activity (Rattus norvegicus [22]): 102

— ChEMBL document CHEMBL1150496, “Synthesis and biological activity of C-5 modified derivatives of (+)-AJ76 and (+)-UH232: Increased dopamine D3 receptor preference and improved pharmacokinetic properties” (Bioorg Med Chem Lett, 1994)
